Laboratory results as given in paper PMC12811658, “Design, Synthesis, and Structural Evolution of Pseudo‐Natural Product IDO1 Inhibitors and Degraders” (Angewandte Chemie (International Ed. in English), 2025).

How the values were obtained:
[1] = target: IDO1 protein levels in BxPC3 cells (Homo sapiens, UniProt P14902); experiment: IDO1 immunoblotting (degradation); format: cell-based; design: endogenous in cells; host or cells: BxPC3 (DSMZ), IFN-γ stimulated; conditions: for IDO1 protein level by immunoblotting (in words): IFN-γ 24 h, washout, compounds 24 h; for Max. degradation (%): 24 h incubation, mean ± SD
[2] = system: Kyn levels in BxPC3 cells (kynurenine generated by IDO1); experiment: Cellular Kyn assay (automated Kyn screening assay); format: cell-based; conditions: Homo sapiens, BXPC-3, 48 h, IFN-γ, L-Trp and compounds 48 h, mean ± SD, read-out: IC50 (Kyn assay), reduction of kynurenine levels
[3] = target: T1, recombinant human IDO1 (Homo sapiens, UniProt P14902); experiment: IDO1 enzymatic assay in vitro; format: biochemical; conditions: pre-incubation 37 °C 45 min; for inhibition at 14 µM: mean ± SD
T1 construct: The GST-tag of IDO1 was removed to obtain untagged full-length IDO1l using PreScission protease; GST (N, cleaved yes); made in house; own inference

[4] = target: T2, IDO1 protein in IFN-γ stimulated HeLa cells (Homo sapiens, UniProt P14902); experiment: IDO1 immunostaining (immunofluorescence); format: cell-based; conditions: 24 h
T2 construct: endogenous in cells; host or cells: HeLa (DSMZ), IFN-γ stimulated
Procedure: Figure 3 Comparison of IDO1 degradation efficiency for selected compounds. a) Detection of IDO1 levels using immunostaining. IFN‐γ stimulated HeLa cells were treated with the compounds for 24 h. IDO1 protein abundance was detected with IDO1 antibody. Data are mean values ± SD, n = 3. b) IDO1 protein levels in BxPC3 cells upon compounds treatment were detected using immunoblotting. BxPC3 cells were treated with IFN‐γ for 24 h prior to washout, followed by addition of compounds. Representative blot and quantified band intensities are shown (mean values ± SD, n = 3). See Figure S11a S12a for the uncropped blots. c) Key functions of hit compounds that influence degradation efficiency. d) Heatmap for IDO degradation efficiency. IDO1 levels were monitored as described in (c). See Table S1 for mean values and Figure S11b for the uncropped blots. e)–g) Dose dependent degradation of IDO1 protein in BxPC3 cells treated with iDeg‐7–9 and detected as described in (c). Representative data of n = 3 except for iDeg‐9 (n = 4). See Figure S12 S13 for the uncropped blots. h) Quantification of IDO1 protein levels from e‐g (mean values ± SD, n = 3 except for iDeg‐9 (n = 4). i) Tabulated inhibition and degradation ability of iDeg‐6–9. ND: not detected. j) Volcano plot of iDeg‐6‐induced changes on the global proteome. SKOV‐3 cells were treated with 10 µM iDeg‐6 or DMSO for 4 h followed by protein extraction, tryptic digest and LC‐MS/MS analysis (n = 4). Plot generated using UMSAP (T 0 = 0.5, S 0 = 0.5).
IFN-γ-stimulated Hela cells (5 ng/mL IFN-γ) were seeded in 96-well plates and incubated for 24 h. Subsequently, IFN-γ was washed out and cells were treated with compounds for additional 24 h. Cells were then washed once with PBS and fixed with 3.7% paraformaldehyde for 10 min at room temperature. Cells were washed three times with ice-cold PBS. […] Images were analyzed by SpectraMax Paradigm microplate reader (Molecular Devices) to extract IDO1 fluorescence intensity as well as the cell count. IDO1 fluorescence intensity was normalized to cell count. […]

[5] = target: T3, recombinant full-length human IDO1 (Homo sapiens, UniProt P14902); experiment: Isothermal titration calorimetry (ITC); format: binding; conditions: 25 °C
T3 construct: The GST-tag of IDO1 was removed to obtain untagged full-length IDO1l using PreScission protease; GST (N, cleaved yes); made in house; own inference
Procedure: (§1) Incubation at 37 °C for 3 h. Representative data for n = 3. c) Time‐course of heme displacement from IDO1 detected by the absorbance at the Soret peak (404 nm) as a function of time. […] All curves were fit using a one‐site model with N = 1 and defined IDO1 concentration. Left plots show baseline corrected data, while right plots show integrated binding isotherms versus iDegs/IDO1 ratio. IDO1 protein (125 µM) was titrated into the stirred sample cell containing iDegs (25 µM, except for iDeg‐8 at 50 µM). Representative data for n = 3, except for iDeg‐9 (n = 2). g)–i) In vivo activity of iDeg‐6. NSG immunodeficient mice were injected with SKOV‐3 cells. Mice were treated with 18 intraperitoneal injections of iDeg‐6 (30 mg kg^−1) or vehicle. The pharmacological treatment was twice daily. Tumor volume was determined weekly by digital caliper. g) SKOV‐3 tumor growth curves in iDeg‐6‐treated mice (n = 12, green lines) or vehicle‐treated mice (n = 13, gray lines). Statistical analysis was performed by two‐way ANOVA: ****p < 0.001. h) Body weight changes during treatment window (mean values ± range). i) Survival data are shown by Kaplan‐Meier survival analysis. Mantel–Haenszel statistical analysis: p < 0.0001).
ITC was performed using the MicroCal PEAQ-ITC system (Malvern) at 25 °C. Recombinant human full-length IDO1 (rhIDO1) was buffer-exchanged into 100 mM phosphate buffer (50 mM KH₂PO₄ and 50 mM K₂HPO₄, pH 6.57) with 1 mM TECP using a 10 K Amicon® Ultra centrifugal filter (Millipore). The buffer exchange was repeated ten times to ensure complete removal of interfering components. The final protein sample was diluted in the same phosphate buffer prior to titration.125 μM protein in 100 mM phosphate buffer was loaded into the syringe, while 25 μM compound (except for iDeg-8, 50 μM) in 100 mM phosphate buffer was loaded to the cell. All samples were adjusted to 25 °C and degassed before loading. Titrations were performed at 25 °C with one injection of 0.4 µL, followed by 18 injections of 2 µL. Experiments were performed with three biological replicates except for iDeg-9 with two biological replicates. Data were analyzed using the MicroCal PEAQ-ITC Analysis software and were plotted using GraphPad Prism 9.0 (GraphPad, USA).

[6] = target: T4, heme-bound IDO1 (holo-IDO1) (Homo sapiens, UniProt P14902); experiment: UV/Vis detection of heme-bound IDO1 (heme displacement); format: binding; conditions: 50 µM
T4 construct: The GST-tag of IDO1 was removed to obtain untagged full-length IDO1l using PreScission protease; GST (N, cleaved yes); made in house; own inference
Procedure: as §1
Representative data of n=3 biological replicates. c, IDO1 was incubated with compounds (50 µM) or DMSO (control). UV/VIS spectra were acquired at five time points to monitor heme loss over time. Data are representative of two replicates.
The test compounds or DMSO (vehicle control) were incubated with recombinant full-length human IDO1 (rhIDO1; 10 µM) in 50 mM potassium phosphate buffer (pH 6.5) for 3 h at 37 °C. Following incubation, samples were centrifuged at 5,000 × g for 10 minutes. UV/Vis absorption spectra were then recorded from 250 nm to 650 nm in 1 nm increments using UV-transparent microplates (UV-STAR®, Greiner Bio-One, Austria) on a Spark® multimode microplate reader (Tecan, Austria). Absorbance values were analyzed at 404 nm (A404), and were plotted using GraphPad Prism version 9.0 (GraphPad Software, USA).

[7] = determined if inhibition at 14 µM higher than 50%

T3 sequence (P14902 whole entry): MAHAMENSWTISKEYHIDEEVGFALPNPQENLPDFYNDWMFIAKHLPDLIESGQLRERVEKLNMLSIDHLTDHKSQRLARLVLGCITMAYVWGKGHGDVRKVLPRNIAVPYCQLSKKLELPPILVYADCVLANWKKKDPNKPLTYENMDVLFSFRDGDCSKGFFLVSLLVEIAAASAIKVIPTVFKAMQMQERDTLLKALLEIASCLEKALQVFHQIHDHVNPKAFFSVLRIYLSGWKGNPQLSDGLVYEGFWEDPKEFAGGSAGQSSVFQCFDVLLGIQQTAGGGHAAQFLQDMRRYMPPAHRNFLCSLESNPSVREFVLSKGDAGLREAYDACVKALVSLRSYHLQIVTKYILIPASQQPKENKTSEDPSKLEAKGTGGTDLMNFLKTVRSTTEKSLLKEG
T1 sequence (P14902 whole entry): as above
Chain of IDO1 protein levels in BxPC3 cells (P14902 whole entry): as above
T4 sequence (P14902 whole entry): as above
T2 sequence (P14902 whole entry): as above

## Cc1ccc(NC(=O)OC[C@]23CN(S(=O)(=O)c4ccc(C(C)(C)C)cc4)C[C@H]2C[C@H]2C[C@@H]3C2(C)C)cc1 [10 (iDeg-1), ((3aS,4R,6R,7aS)-2-((4-(tert-butyl)phenyl)sulfonyl)-5,5-dimethyloctahydro-3aH-4,6-methanoisoindol-3a-yl)methyl p-tolylcarbamate]
[1]; BxPC3 cells
  IDO1 protein level by immunoblotting (in words): modulate IDO1 abundance
[2]
  IC50: 830 ± 310 nM
[3]
  inhibition at 14 µM: < 25%
[3]; [7]
  IDO1 activity IC50 [µM] (in vitro assay): – (Inactive: >75% Kyn level observed up to a concentration of 14 µM and no IC50 value obtained)
[4]
  IDO1 staining fluorescence intensity (in words): reduced the fluorescence intensity of the IDO1 staining

## C#Cc1ccc(NC(=O)OC[C@]23CN(S(=O)(=O)c4ccc(C(C)(C)C)cc4CC)C[C@H]2C[C@H]2C[C@@H]3C2(C)C)cc1 [99 (iDeg-8), ((3aS,4R,6R,7aS)-2-((4-(tert-butyl)-2-ethylphenyl)sulfonyl)-5,5-dimethyloctahydro-3aH-4,6-methanoisoindol-3a-yl)methyl (4-ethynylphenyl)carbamate]
[5]
  -TΔS (ITC): 3.5 kcal/mol
  ΔG (ITC): -8.2 kcal/mol
  ΔH (ITC): -11.8 ± 0.7 kcal/mol
[5]; one-site model
  Kd: 940 nM
[1]; 10 nM
  Max. degradation (%): 66 ± 4 (3) %
[1]; 100 nM
  Max. degradation (%): 75 ± 7 (3) %
[1]; BXPC-3, @100 nM, BxPC3 cells
  Dmax at 0.1 µM: 75%
[1]; BxPC3 cells, ND: not detected, read-out: DC50 (half-maximal degradation concentration)
  DC50: 3 nM
[2]
  IC50: 9.7 ± 2 nM
[3]
  inhibition at 14 µM: 61 ± 1%
[3]; [7]
  IC50: 4 ± 3.3 µM

## C#Cc1ccc(NC(=O)OC[C@]23CN(S(=O)(=O)c4ccc(C(C)(C)C(=O)O)cc4)C[C@H]2C[C@H]2C[C@@H]3C2(C)C)cc1 [101 (iDeg-7), 2-(4-(((3aS,4R,6R,7aS)-3a-((((4-ethynylphenyl)carbamoyl)oxy)methyl)-5,5-dimethyloctahydro-2H-4,6-methanoisoindol-2-yl)sulfonyl)phenyl)-2-methylpropanoic acid]
[6]; 37 °C, 3 h, Soret band 404 nm
  heme displacement from holo-IDO1 (in words): most efficient heme displacement
[6]; absorbance at 404 nm over time, compared to iDeg-6 and -8
  time course of heme displacement (in words): faster
[5]
  -TΔS (ITC): 13.2 kcal/mol
  Kd: 122 nM
  ΔG (ITC): -9.4 kcal/mol
  ΔH (ITC): -22.6 ± 0.4 kcal/mol
[5]; one-site model
  Kd: 120 ± 20 nM
[1]; 10 nM
  Max. degradation (%): 36 ± 10 (5) %
[1]; 100 nM
  Max. degradation (%): 54 ± 8 (5) %
[1]; BxPC3 cells
  IDO1 protein level by immunoblotting (in words): only moderately reduced the IDO1 protein level
[2]
  IC50: 21 ± 6 nM
[3]
  inhibition at 14 µM: 75 ± 4%
[3]; [7]
  IC50: 0.31 ± 0.06 µM

## Cc1cc(C(C)(C)C(=O)O)ccc1S(=O)(=O)N1C[C@H]2C[C@H]3C[C@H](C3(C)C)[C@@]2(COC(=O)Nc2ccc(I)cc2)C1 [compound 97, 2-(4-(((3aS,4R,6R,7aS)-3a-((((4-iodophenyl)carbamoyl)oxy)methyl)-5,5-dimethyloctahydro-2H-4,6-methanoisoindol-2-yl)sulfonyl)-3-methylphenyl)-2-methylpropanoic acid]
[1]; 10 nM
  Max. degradation (%): 11 ± 24 (3) %
[1]; 100 nM
  Max. degradation (%): 18 ± 19 (3) %
[2]
  IC50: 5 ± 1 nM
[3]
  inhibition at 14 µM: 65 ± 4%
[3]; [7]
  IC50: 0.11 ± 0.02 µM

## C#Cc1ccc(NC(=O)OC[C@]23CN(S(=O)(=O)c4ccc(C(C)(C)C)cc4C4CC4)C[C@H]2C[C@H]2C[C@@H]3C2(C)C)cc1 [compound 100, ((3aS,4R,6R,7aS)-2-((4-(tert-butyl)-2-cyclopropylphenyl)sulfonyl)-5,5-dimethyloctahydro-3aH-4,6-methanoisoindol-3a-yl)methyl (4-ethynylphenyl)carbamate]
[1]; 10 nM
  Max. degradation (%): 61 ± 2 (3) %
[1]; 100 nM
  Max. degradation (%): 71 ± 11 (3) %
[2]
  IC50: 10 ± 4 nM
[3]
  inhibition at 14 µM: 39 ± 7%
[3]; [7]
  IC50: > 14 µM
